Measurements published in patent US10016366B2, “Method of preparing lyophilized powder for injection comprising aloe and Panax pseudo-ginseng” (priority 2013, dated 2018).

Assays:
ovariectomized mice [1] = assay: Serum E2, LH and FSH of ovariectomized mice by ELISA; type: in vivo, female ICR mice; details: 1 mg/kg, one time per day, 14 days, M ± SD
Method: (§1) 3.1 Healthy female ICR mice weighted 20±2 g were anaesthetized by ether and fixed in the abdomen. Bilateral ovaries of the mice were extirpated via back incision below the costal bone. The wounds were stitched and the mice were cultured according to conventional methods. After the wounds were cured, vaginal smear examination was performed, one time per day for five consecutive days, to ensure the ovaries were completely extirpated. The mice in the dioestrum (observations of vaginal smears under microscope found a lot of polynuclear leucocytes and few epithelial cells) in the five consecutive days were qualified mice. 48 mice were randomly divided into 6 groups with each group 8 mice, that is, a model group (be administered with equal volume of normal saline), a diethyl stilbestrol group (1 mg/kg), J01 groups (144 mg/kg, 288 mg/kg), J02 groups (180 mg/kg, 360 mg/kg). Another 6 mice with bilateral ovaries were selected as a control group (be administered with equal volume of normal saline). The mice were administered with corresponding drugs, one time per day, for 14 consecutive days. After one hour from the last injection, blood was sampled from the orbital venous plexus, and centrifuged for 10 min at 3000 rpm. The serum was separated and the E2, LH and FSH values thereof were measured using ELISA method. Thereafter, the abdominal cavity was cut open quickly and thymus, spleen, and uterus were separated and weighed to calculate the coefficients of the thymus, spleen, and uterus.
(§2) The mice were administered with corresponding drugs, 5 mL/kg, one time per day, for 14 consecutive days.
(§3) Viscera index: coefficients of the thymus, spleen, and uterus. Viscera index=organ weight/mice body weight*10. Serum index: E2 (estradiol), LH (luteinizing hormone), FSH (follicle stimulating hormone).
(§4) The difference between groups of the measured data is examined based on ANOVA T-TEST using SPSS10.0.

ovariectomized mice [2] = assay: Viscera index (thymus, spleen, uterus coefficients) of ovariectomized mice; type: in vivo, female ICR mice; details: 1 mg/kg, one time per day, 14 days, M ± SD
Method: as §1, §2, §3, §4

Structure (SMILES): CC/C(=C(/CC)c1ccc(O)cc1)c1ccc(O)cc1 [Diethylstilbestrol]
- E2 (Estrogen) (ovariectomized mice [1]): 113.81 ± 33.85 pg/mL
- FSH (Follicle Stimulating Hormone) (ovariectomized mice [1]): 22.54 ± 6.97 ng/mL
- LH (luteinizing hormone) (ovariectomized mice [1]): 31.33 ± 4.51 ng/mL
- Spleen index (ovariectomized mice [2]): 66.67 ± 16.93 mg/10 g
- Thymus index (ovariectomized mice [2]): 32.99 ± 8.11 mg/10 g
- Uterus index (ovariectomized mice [2]): 62.67 ± 11.89 mg/10 g
